Test results reported in patent publication US7078400B2, “20-HETE synthase inhibitor” (Taisho Pharmaceutical Co., Ltd., priority 1999, dated 2006).
Values belong to the compound of their own block, whether it stands above or below them.

System: 20-HETE synthase originated from rat kidney microsome
Experiment: Inhibitory effect of 20-HETE synthase originated from rat kidney microsome
Assay type: biochemical
Details: for Inhibition rate (1 μM): 20-HETE production without compound set to 100%; for IC50: concentration at which production of 20-HETE was inhibited to 50%
Description: Experimental Example [Inhibitory effect of 20-HETE synthase originated from rat kidney microsome]
Regarding the compounds listed in Table 1, their inhibitory activity to production of 20-HETE was examined.
The subject compound for this examination was added to a buffer comprising 50 mM of 3-morpholinopropane sulfonic acid (pH7.4), 5 mM of magnesium chloride and 1 mM of ethylenediaminetetraacetic acid (EDTA) disodium salt.
After that, the rat kidney microsome (microsome fraction prepared from the kidney of a spontaneous hypertension rat (male, 6 weeks of age)) as an enzyme, [5,6,8,9,11,12,14,15] tritium-arachidonic acid (supplied by Amasham) as a substrate, and NADPH (supplied by Sigma) as a coenzyme were added and reacted for 1.5 hours at 37° C.
After the reaction, formic acid was added to stop the reaction, and then acetonitrile (final concentration of 50%) was added and left for 1.5 hours at room temperature.
The activity of 20-HETE synthase was measured by using a high performance liquid chromatograph having a detector for radioactive substances (supplied by Gilson), and equipped with a C18 reversed phase column (Biocyl C18, supplied by Bio-rad).

[1] = 1 μM of subject compound, rat kidney microsome

Structure (SMILES): CCCCCCCCOc1ccc(N/C=N/O)cc1 [Comp. 322]
Inhibition rate (1 μM) [1]: 117.5

Structure (SMILES): CCC(C)CCOc1ccc(N/C=N/O)cc1 (stereo not shown) [Comp. 326]
Inhibition rate (1 μM) [1]: 110.8

Structure (SMILES): CC(C)CCCOc1ccc(N/C=N/O)cc1 [Comp. 327]
Inhibition rate (1 μM) [1]: 110.1

Structure (SMILES): CC(C)CCOc1ccc(N/C=N/O)cc1 [Comp. 328]
Inhibition rate (1 μM) [1]: 121.4

Structure (SMILES): CCN(CC)CCOc1ccc(N/C=N/O)cc1 [Comp. 351]
Inhibition rate (1 μM) [1]: 89

Structure (SMILES): O/N=C/Nc1ccc(OCCN2CCCCC2)cc1 [Comp. 357]
Inhibition rate (1 μM) [1]: 98

Structure (SMILES): O/N=C/Nc1ccc(OCC2CCCCCC2)cc1 [Comp. 370]
Inhibition rate (1 μM) [1]: 113.7

Structure (SMILES): Cc1ccc(CCOc2ccc(N/C=N/O)cc2)cc1 [Comp. 372]
Inhibition rate (1 μM) [1]: 100.5

Structure (SMILES): COc1ccc(CCCOc2ccc(N/C=N/O)cc2)cc1OC [Comp. 374]
Inhibition rate (1 μM) [1]: 119.1

Structure (SMILES): COc1ccc(CCCOc2ccc(N/C=N/O)cc2)cc1 [Comp. 375]
Inhibition rate (1 μM) [1]: 117.7

Structure (SMILES): O/N=C/Nc1ccc(OCCc2cccc(Br)c2)cc1 [Comp. 376]
Inhibition rate (1 μM) [1]: 114.9

Structure (SMILES): CCOC(=O)CCCCCOc1ccc(N/C=N/O)cc1 [Comp. 378]
Inhibition rate (1 μM) [1]: 102.4

Structure (SMILES): COc1ccccc1CCOc1ccc(N/C=N/O)cc1 [Comp. 379]
Inhibition rate (1 μM) [1]: 105.4

Structure (SMILES): CC(C)=CCCC(C)CCOc1ccc(N/C=N/O)cc1 (stereo not shown) [Comp. 380]
Inhibition rate (1 μM) [1]: 118.9

Structure (SMILES): O/N=C/Nc1ccc(OCCCCc2ccccc2)cc1 [Comp. 381]
Inhibition rate (1 μM) [1]: 116.0

Structure (SMILES): Cc1ccc(COc2ccc(N/C=N/O)cc2)cc1 [Comp. 383]
Inhibition rate (1 μM) [1]: 116.2

Structure (SMILES): O/N=C/Nc1ccc(OCc2ccccc2CCc2ccccc2)cc1 [Comp. 386]
Inhibition rate (1 μM) [1]: 105.2

Structure (SMILES): O/N=C/Nc1ccc(OCc2cccc(Oc3ccccc3)c2)cc1 [Comp. 388]
Inhibition rate (1 μM) [1]: 96.2

Structure (SMILES): COC(=O)c1ccc(COc2ccc(N/C=N/O)cc2)cc1 [Comp. 396]
Inhibition rate (1 μM) [1]: 102.7

Structure (SMILES): O/N=C/Nc1ccc(OCc2ccc(-c3ccccc3)cc2)cc1 [Comp. 397]
Inhibition rate (1 μM) [1]: 99.3

IC50: 2.4 nM
Structure (SMILES): CCN(CC)CCOCCOc1ccc(N/C=N/O)cc1 [Comp. 398]
Inhibition rate (1 μM) (1 μM of the subject compound): 95.2

Structure (SMILES): CCN(CCOc1ccc(N/C=N/O)cc1)c1cccc(C)c1 [Comp. 405]
Inhibition rate (1 μM) (1 μM of the subject compound): 116.0

Structure (SMILES): Cn1c(=O)c2c(ncn2CCOc2ccc(N/C=N/O)cc2)n(C)c1=O [Comp. 406]
Inhibition rate (1 μM) (1 μM of the subject compound): 73.7

Structure (SMILES): O/N=C/Nc1ccc(OCCOc2ccccc2)cc1 [Comp. 418]
Inhibition rate (1 μM) (1 μM of the subject compound): 120.4

Structure (SMILES): O/N=C/Nc1ccc(OCCSc2ccccc2)cc1 [Comp. 419]
Inhibition rate (1 μM) (1 μM of the subject compound): 116.1

IC50: 2.6 nM
Structure (SMILES): OCCCCCOc1ccc(N/C=N/O)cc1 [Comp. 427]

IC50: 79.1 nM
Structure (SMILES): O/N=C/Nc1ccc(OCCCN2CCCC2)cc1 [Comp. 429]

Structure (SMILES): O/N=C/Nc1ccc(SCc2ccc(Cl)cc2)cc1 [Comp. 437]
Inhibition rate (1 μM) (1 μM of the subject compound): 96.1

Structure (SMILES): O/N=C/Nc1ccc(SC2CCCCC2)cc1 [Comp. 438]
Inhibition rate (1 μM) (1 μM of the subject compound): 87.9

Structure (SMILES): CCOC(=O)CSc1ccc(N/C=N/O)cc1 [Comp. 440]
Inhibition rate (1 μM) (1 μM of the subject compound): 102.8

Structure (SMILES): CCCCSc1ccc(N/C=N/O)cc1 [Comp. 442]
Inhibition rate (1 μM) (1 μM of the subject compound): 95.7

Structure (SMILES): CC(C)CCSc1ccc(N/C=N/O)cc1 [Comp. 443]
Inhibition rate (1 μM) (1 μM of the subject compound): 103.0

Structure (SMILES): COC(=O)CSc1ccc(N/C=N/O)cc1 [Comp. 446]
Inhibition rate (1 μM) (1 μM of the subject compound): 95.9

Structure (SMILES): O/N=C/Nc1ccc(SC2CCCC2)cc1 [Comp. 447]
Inhibition rate (1 μM) (1 μM of the subject compound): 95.9

Structure (SMILES): CCCCCSc1ccc(N/C=N/O)cc1 [Comp. 450]
Inhibition rate (1 μM) (1 μM of the subject compound): 105.9

Structure (SMILES): CCCCCCSc1ccc(N/C=N/O)cc1 [Comp. 451]
Inhibition rate (1 μM) (1 μM of the subject compound): 97.6

Structure (SMILES): CCCCCCCSc1ccc(N/C=N/O)cc1 [Comp. 452]
Inhibition rate (1 μM) (1 μM of the subject compound): 112.3

Structure (SMILES): CCCCCCCCCSc1ccc(N/C=N/O)cc1 [Comp. 453]
Inhibition rate (1 μM) (1 μM of the subject compound): 95.3

Structure (SMILES): CCN(CC)CCSc1ccc(N/C=N/O)cc1 [Comp. 454]
Inhibition rate (1 μM) (1 μM of the subject compound): 105.8

Structure (SMILES): COC(=O)CCSc1ccc(N/C=N/O)cc1 [Comp. 455]
Inhibition rate (1 μM) (1 μM of the subject compound): 105.6

Structure (SMILES): CCOC(=O)CCSc1ccc(N/C=N/O)cc1 [Comp. 457]
Inhibition rate (1 μM) (1 μM of the subject compound): 112.6

Structure (SMILES): O/N=C/Nc1ccc(SCCc2ccccc2)cc1 [Comp. 458]
Inhibition rate (1 μM) (1 μM of the subject compound): 116.0
